Read-outs that look alike come from different tables or passages of the source.

From PMC9525908, “α-Crystallin chaperone mimetic drugs inhibit lens γ-crystallin aggregation: Potential role for cataract prevention” (The Journal of Biological Chemistry, 2022) come the findings set out here.

Experiment [1] concerns the target T1, OPJ-MγS (Mus musculus, UniProt O35486, F10S).
T1 construct: made in house; host or cells: E. coli BL21(DE3) pLysS, pET17b vector
T1 sequence (O35486 1-178 F10S): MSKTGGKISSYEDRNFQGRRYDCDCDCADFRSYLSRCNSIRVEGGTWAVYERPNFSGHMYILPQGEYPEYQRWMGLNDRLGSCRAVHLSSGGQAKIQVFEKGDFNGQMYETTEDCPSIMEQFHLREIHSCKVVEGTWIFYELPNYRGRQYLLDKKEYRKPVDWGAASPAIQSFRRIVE
Nature of the experiment: bis-ANS binding study, OPJ-MγS. The note with it: 10 μM protein, 100 μM drug; read-out: Percent inhibition of binding of bis-ANS, OPJ-MγS. The procedure: Extrinsic fluorescence spectra were recorded using bis-ANS, a well-known surface hydrophobicity probe. The spectra were recorded between 400 and 600 nm after exciting at 390 nm. The experiment was performed on 10 μM of HγD and MγS in 50 mM K3PO4 buffer with and without our candidate drugs (100 μM). Bis-ANS stock solution was prepared in methanol whose final percentage was maintained below 7 after mixing with proteins ([81]).

For the next experiment, the target named is T2, HγS (Homo sapiens, UniProt P22914).
T2 sequence (P22914 1-178): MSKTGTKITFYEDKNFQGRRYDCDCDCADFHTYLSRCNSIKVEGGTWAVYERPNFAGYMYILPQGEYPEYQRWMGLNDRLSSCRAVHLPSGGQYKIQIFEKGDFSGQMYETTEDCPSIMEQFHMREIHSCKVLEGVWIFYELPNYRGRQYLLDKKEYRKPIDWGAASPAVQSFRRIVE
The experiment is described as follows: Thermal aggregation (72 °C, 20 min) turbidity assay, HγS. In kind it is biochemical. The note with it: 20 min, read-out: % Suppression; for inhibition: HγS, 75 μM protein, 72 °C 20 min. The text has this: (§1) For a review, see the study by Roskamp et al. ([38]). […] For the mechanistic studies below these two compounds together with either drug M, chosen mostly as negative control, or the entire set of six compounds were used for comparison purpose, whereby the words “drug” or “compound” are used interchangeably in the studies later.

In experiment [2] the target is T1, OPJ-MγS. The experiment is described as follows: End-point heat-mediated turbidity assay, OPJ-MγS. As to conditions: read-out: Percent Inhibition of heat mediated aggregation, OPJ-MGS. In kind it is biochemical. The method, then: Absorbance was measured at 600 nm with a SpectraMax iD5 (Molecular Devices).
Aggregation kinetics assays at 600 nm in the presence of varying concentrations (0, 100, 200, 300, 400, and 500 μM) of our selected drugs were also performed on mutants of HγD (W43R, W42Q, R14C, and R58H) and MγS (F9S) at a concentration of 1 mg/ml in 50 mM K3PO4 buffer (pH 7.2) in a total volume of 100 μl. WT-HγD and WT-MγS crystallin served as controls for their respective mutant versions. […] Absorbance was monitored every 10 min. […] All the experiments were run in duplicates or triplicates.

The next experiment relates to Bovine γ-crystallins. The experiment is described as follows: Thermal aggregation (72 °C) turbidity assay, bovine γ-crystallins (pool 4). In kind it is biochemical. The note with it: for Thermal denaturation inhibitory activity in subscreen: 150 μM; for Thermal denaturation inhibitory activity in subscreen / % Suppression: 72 °C 20 min; for % Suppression: 75 μM protein, 125 μM or less inhibitor (1.7:1); for Effect on BGC aggregation at lower protein concentrations / Effect on absorbance of BGC at 2.0 mg/ml: 400 μM drug, 72 °C, 10 and 20 min. The procedure:
Candidate compounds were rescreened using thermal denaturation upon heating at 72 °C for 20 min according to Chen et al. ([36]) in order to select for compounds with chaperone rather than antioxidant activity since a large number of the latter already exist in the cataract field ([37]).
as §1
All assays were carried out manually in CORNING #9017 Costar Assay 96-well plates. Wells were filled with 90 μl calf γ-crystallin-rich protein solution (pool 4 at 2 mg/ml) followed by 0.5 to 5.0 μl of drug (all 10 mM stock solution in DMSO) as supplied by the manufacturer and 10 μl H2O2 (450 mM stock solution in water) and sealed with sticky Applied Biosystems MicroAmp Clear Adhesive films (Life Technologies). Control wells received DMSO only. Plates were shaken for 2 min and incubated from 24 to 72 h in a culture room at 37 °C. […] A second reading was performed following a heat shock of 20 min at 72 °C as described by Chen et al. ([36]) in order to capture drugs with heat-resistant chaperone activity. In order to quantitate the impact of the drugs on aggregation, a fitness plot was created (Fig. 1 C) that allowed us to identify wells with enhanced/worsening versus suppressed crystallin aggregation. In addition, aggregation in each well was also visually assessed by two independent “blinded” readers for the ability to read fine print through each well by placing the plates over small font text (Fig. 1D). Both machine and visual readouts were reconciled in order to increase robustness.
Final DMSO concentration was 5% including in control samples. Microtiter plates were first incubated for 10 min at 72 °C and reincubated for 10 more min. Absorbance was measured at both 10 and 20 min total incubation time.

The target of a further experiment is T3, WT-HγD crystallin (Homo sapiens, UniProt P07320).
T3 construct: made in house; host or cells: E. coli BL21(DE3) pLysS, pET3d vector
T3 sequence (P07320 1-174): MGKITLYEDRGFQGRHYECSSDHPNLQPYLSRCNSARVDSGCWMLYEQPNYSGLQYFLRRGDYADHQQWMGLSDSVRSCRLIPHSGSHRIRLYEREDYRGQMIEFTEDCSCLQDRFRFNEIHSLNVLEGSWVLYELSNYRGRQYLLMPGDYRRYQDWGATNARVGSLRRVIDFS
Nature of the experiment: Dynamic light scattering of thermally stressed WT-HγD. It counts as biochemical. As to conditions: for Size (radius) of aggregates: 50 μM WT-HγD, 400 μM drug, 72 °C 20 min, 7261 nm without drugs. The method, then: Efficacy of our selected drugs in preventing the formation of protein aggregates was measured by DLS. Measurements were performed on a Wyatt DynaPro Nanostar. For DLS temperature scan experiment, pure and filtered protein samples (1 mg/ml in 10 mM sodium phosphate buffer, pH 7.2) with and without drugs (400 μM) were analyzed by DLS over a temperature range of 30 to 90 °C. Multiple scans were run for every data point, and the results represent average of individual scans. DLS spectra were also recorded for the samples at the end point of turbidity assay.

Where [3] appears, read: 500 μM drug, end point of turbidity assay 72 °C 20 min.
The mark [4] stands for this setting: Bovine γ-crystallins experiment 1.
The mark [5] stands for this setting: Bovine γ-crystallins experiment 2.
Setting [6] is: WT-HγD, end point of thermal stress 72 °C 20 min.

Take `COC(=O)/C=C/C(C)=C\C=C\C(C)=C\C=C\C=C(C)\C=C\C=C(C)\C=C\C(=O)O` [drug B, Bixin]: the inhibition at 100 µM on OPJ-MγS [1] stood at 11.83 ± 0.00091%. Moreover, the inhibition on HγS was found to be 60%. The inhibition at 500 µM on OPJ-MγS [2] (setting [3]) worked out at 77.6 ± 0.21%. The “Thermal denaturation inhibitory activity in subscreen” value with Bovine γ-crystallins is reported as “thermal denaturation inhibitory activity”. The entries for the “% Suppression” value in the experiment on Bovine γ-crystallins (setting [4]) and with Bovine γ-crystallins (setting [5]) were 23% and 54%, respectively.
For the molecule `Cc1cc(C(C#N)c2ccc(Cl)cc2)c(Cl)cc1NC(=O)c1cc(I)cc(I)c1O` (stereo not drawn) [drug C, Closantel], at WT-HγD crystallin, the “Size (radius) of aggregates” value worked out at 30.5 nm. Moreover, on WT-HγD crystallin (setting [6]), the “Percent Mass Peak 1” value turned out to be 100% and the “Radius (nm) Peak 1” value is on record as 30.5 nm. The inhibition at 100 µM at OPJ-MγS [1] turned out to be 20.28 ± 0.00089%. In addition, on HγS, the inhibition at 125 µM stood at 71%. In addition, the inhibition at 500 µM at OPJ-MγS [2] turned out to be 82 ± 0.49%. Also, in the experiment on Bovine γ-crystallins, the “Thermal denaturation inhibitory activity in subscreen” value is recorded as “thermal denaturation inhibitory activity”, the “Effect on BGC aggregation at lower protein concentrations” value was “stimulated aggregation” and the “Effect on absorbance of BGC at 2.0 mg/ml” value was “reproducibly suppressed absorbance”. Further, in the experiment with Bovine γ-crystallins (setting [4]), the “% Suppression” value is given as 60%. Further, in the experiment on Bovine γ-crystallins (setting [5]), the “% Suppression” value was found to be 73%.
As for `CC(C)=CCCC1(C)C=Cc2c(O)c3c(c(CC=C(C)C)c2O1)OC12C(=CC4CC1C(C)(C)OC2(C/C=C(/C)C(=O)O)C4O)C3=O` (stereo not drawn) [drug D, dihydrogambogic acid], the inhibition at 100 µM at OPJ-MγS [1] was determined as 7.76 ± 0.00097%. Further, the inhibition at 125 µM on HγS is 61%. At OPJ-MγS [2], the inhibition at 500 µM worked out at 85.1 ± 0.68%. In the experiment with Bovine γ-crystallins, the “Thermal denaturation inhibitory activity in subscreen” value is recorded as “thermal denaturation inhibitory activity”. The “% Suppression” value in the experiment on Bovine γ-crystallins (setting [4]) is on record as 40%; in the experiment with Bovine γ-crystallins (setting [5]), 44%.
For the molecule `CC(C)=CCC[C@]1(C)C=Cc2c(O)c3c(c(CC=C(C)C)c2O1)O[C@]12C(=C[C@@H]4C[C@H]1C(C)(C)O[C@@]2(C/C=C(/C)C(=O)O)C4=O)C3=O` [drug G, Gambogic acid], the “Size (radius) of aggregates” value at WT-HγD crystallin is on record as 84.9 nm. Besides, on WT-HγD crystallin (setting [6]), the “Percent Mass Peak 1” value was 100% and the “Radius (nm) Peak 1” value turned out to be 84.9 nm. Further, the inhibition at 100 µM on OPJ-MγS [1] was 31.62 ± 0.00057%. On HγS, the inhibition at 125 µM was determined as 46%. Also, the inhibition at 500 µM on OPJ-MγS [2] turned out to be 91.6 ± 0.09%. Further, in the experiment on Bovine γ-crystallins, the “Thermal denaturation inhibitory activity in subscreen” value was “thermal denaturation inhibitory activity”, the “Effect on BGC aggregation at lower protein concentrations” value is reported as “stimulated aggregation” and the “Effect on absorbance of BGC at 2.0 mg/ml” value is “reproducibly suppressed absorbance”. Besides, in the experiment on Bovine γ-crystallins (setting [4]), the “% Suppression” value is reported as 48%. Moreover, in the experiment on Bovine γ-crystallins (setting [5]), the “% Suppression” value was 75%.
Regarding `O=C(O)CCCCCCCCCCCC[C@@H]1C=CCC1` [drug M, Chaulmoogric acid], the “Size (radius) of aggregates” value on WT-HγD crystallin is listed as 569 nm. For the same molecule, at WT-HγD crystallin (setting [6]), the “Percent Mass Peak 1” value is given as 12.7%, the “Percent Mass Peak 2” value is on record as 87.3%, the “Radius (nm) Peak 1” value was 10.9 nm and the “Radius (nm) Peak 2” value was determined as 568.5 nm. Moreover, at OPJ-MγS [1], the inhibition at 100 µM stood at 3.48 ± 0.001%. Also, at HγS, the inhibition was found to be 39%. For the same molecule, the inhibition at 500 µM on OPJ-MγS [2] (setting [3]) worked out at 33.6 ± 2.36%. In addition, the “Thermal denaturation inhibitory activity in subscreen” value in the experiment with Bovine γ-crystallins is “thermal denaturation inhibitory activity”. Besides, the “% Suppression” value in the experiment on Bovine γ-crystallins (setting [4]) stood at 40%. Further, the “% Suppression” value in the experiment with Bovine γ-crystallins (setting [5]) came to 16%.
On to `Oc1c(Cl)cc(Cl)c(Cl)c1Cc1c(O)c(Cl)cc(Cl)c1Cl` [drug X, Hexachlorophene], for which the inhibition at 100 µM on OPJ-MγS [1] was 2.45 ± 0.00075%. Also, the inhibition at 125 µM on HγS was determined as 68%. Also, on OPJ-MγS [2], the inhibition at 500 µM amounted to 60.9 ± 0.8%. In the experiment with Bovine γ-crystallins, the “Thermal denaturation inhibitory activity in subscreen” value is listed as “thermal denaturation inhibitory activity”. The “% Suppression” value with Bovine γ-crystallins (setting [4]) was 30%; in the experiment on Bovine γ-crystallins (setting [5]), 55%.
